The source of these data is ChEMBL document CHEMBL1131822, “Nonpeptidic HIV protease inhibitors: 6-alkyl-5,6-dihydropyran-2-ones possessing a novel and achiral 3-(2-t-butyl-5-methyl-4-sulfamate)phenylthio moiety” (Bioorg Med Chem Lett, 1999).

By inhibition is commonly meant the relative decrease from the control value, in per cent. Low readings indicate little suppression, high ones strong suppression. What is called pIC50 is the IC50 on a negative log10 scale, so that one unit is a factor of ten. A low value points to a high IC50. As a reminder, the pEC50 is −log10 of the EC50, conventionally taken in molar units. High values mean a low EC50, low ones a high EC50. One may read the pKi as the Ki on a negative log10 scale, so that one unit is a factor of ten. Lower therefore signals a high Ki.

The target of series [1] is T1, CYP3A4 (Homo sapiens, UniProt P08684). Description: Inhibition of Cytochrome P450 3A4 at 10 uM. Format: ADME.
T1 sequence (P08684 whole entry): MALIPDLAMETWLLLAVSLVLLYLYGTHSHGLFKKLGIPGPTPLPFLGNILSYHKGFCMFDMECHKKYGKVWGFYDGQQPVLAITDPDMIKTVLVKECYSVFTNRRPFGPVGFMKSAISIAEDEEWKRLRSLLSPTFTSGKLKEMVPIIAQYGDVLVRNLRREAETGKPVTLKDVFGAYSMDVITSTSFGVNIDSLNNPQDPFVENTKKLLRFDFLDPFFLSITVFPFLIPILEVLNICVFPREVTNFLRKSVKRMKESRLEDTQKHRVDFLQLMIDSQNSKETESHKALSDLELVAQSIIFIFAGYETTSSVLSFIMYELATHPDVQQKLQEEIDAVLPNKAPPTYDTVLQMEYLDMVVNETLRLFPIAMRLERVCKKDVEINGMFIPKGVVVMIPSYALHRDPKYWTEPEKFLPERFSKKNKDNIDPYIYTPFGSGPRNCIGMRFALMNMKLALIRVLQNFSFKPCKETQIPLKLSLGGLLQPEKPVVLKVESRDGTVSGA
Series [2] has as its system CYP2D6. Description: Inhibition of Cytochrome P450 2D6 at 10 uM. The format is ADME.
Series [3] addresses T1, CYP3A4. Description: Inhibition of Cytochrome P450 3A4 at 1 uM. The format is ADME.
The target in series [4] is T2, Human immunodeficiency virus type 1 protease (Human immunodeficiency virus 1, UniProt Q72874). The series can be described thus: Tested in vitro for HIV protease (PR) binding affinity.
Series [5] deals with CYP2D6. The series can be described thus: Inhibition of Cytochrome P450 2D6 at 1 uM. Format: ADME.
Series [6] in a line: Therapeutic index was determined. Particulars: read-out: Therapeutic index.
Series [7] in a line: In vitro Cytotoxicity against uninfected CEM (human leukemia) cells. The format is functional. The note with it: CCRF-CEM, read-out: TC50 (the source's name).
In series [8] the test system is Human immunodeficiency virus 1. Description: In vitro inhibition of HIV-1 (IIIB) cytopathic effects in CEM (human leukemia) cells. Format: functional, organism-based. The note with it: Human immunodeficiency virus 1, CCRF-CEM. In general terms: Cytopathic effects are the visible damage that an infection or toxin causes in cultured cells.
The test system of series [9] is CYP2D6. The series can be described thus: Inhibition of Cytochrome P450 2D6 at 100 uM. Format: ADME.
Series [10] concerns the target T1, CYP3A4. Description: Inhibition of Cytochrome P450 3A4 at 100 uM. The format is ADME.
Series [11] addresses T2, Human immunodeficiency virus type 1 protease. The series can be described thus: Compound was tested for binding affinity against HIV protease.
Series [12] deals with T3, CYP2C9 (Homo sapiens, UniProt P11712). Description: Inhibition of Cytochrome P450 2C9 at 1 uM. The format is ADME.
T3 sequence (P11712 whole entry): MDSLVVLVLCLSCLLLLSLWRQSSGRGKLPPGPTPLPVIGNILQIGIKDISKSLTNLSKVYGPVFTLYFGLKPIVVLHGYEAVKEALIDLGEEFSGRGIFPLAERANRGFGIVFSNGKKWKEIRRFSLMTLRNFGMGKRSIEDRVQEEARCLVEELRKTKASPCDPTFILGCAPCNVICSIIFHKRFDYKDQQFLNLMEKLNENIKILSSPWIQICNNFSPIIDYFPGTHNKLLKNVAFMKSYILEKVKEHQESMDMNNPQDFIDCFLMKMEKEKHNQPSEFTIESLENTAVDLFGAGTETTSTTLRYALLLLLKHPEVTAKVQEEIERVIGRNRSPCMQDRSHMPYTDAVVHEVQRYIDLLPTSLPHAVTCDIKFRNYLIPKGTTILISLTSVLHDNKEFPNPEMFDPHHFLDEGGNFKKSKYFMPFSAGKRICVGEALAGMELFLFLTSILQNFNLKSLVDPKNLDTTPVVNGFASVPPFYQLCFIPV
Series [13] deals with T3, CYP2C9. Description: Inhibition of Cytochrome P450 2C9 at 100 uM. Format: ADME.
In series [14] the target is T3, CYP2C9. Description: Inhibition of Cytochrome P450 2C9 at 10 uM. The format is ADME.

Molecules are shown by their SMILES. pEC50, pIC50, pKi: −log10 of the molar value. Where only a bound is given, the exact number is not on record here.

Regarding `Cc1cc(SC2=C(O)OC(CCc3ccc(O)cc3)(C(C)C)CC2=O)c(C(C)(C)C)cc1OS(=O)(=O)N1CCN(C)CC1` (configuration not stated), the inhibition at 10 µM against CYP3A4 [1] is 22%; in the series on CYP2D6 [2], 86%. Moreover, the inhibition at 1 µM came to 0% at CYP3A4 [3] and 39% in the series on CYP2D6 [5]. In [4], the pIC50 is 8.51. In addition, the selectivity ratio in series [6] was greater than 200. Moreover, the CC50 in [7] is greater than 100000 nM. In series [8], this compound gave a pEC50 of 6.30. Also, the figures for the inhibition at 100 µM in the series on CYP2D6 [9] and on CYP3A4 [10] were 100% and 81%, respectively.
`Cc1cc(SC2=C(O)OC(C)(CCc3ccc(O)cc3)CC2=O)c(C(C)(C)C)cc1OS(=O)(=O)N(C)C` (configuration not stated) had a pIC50 in series [4] of 8.80. The selectivity ratio in series [6] was greater than 12. In series [7], the CC50 is greater than 100000 nM. Also, the pEC50 in series [8] is 5.09.
Taken in the same sequence, the figures for `CCNS(=O)(=O)Oc1cc(C(C)(C)C)c(SC2=C(O)OC(CCc3ccccc3)(C(C)C)CC2=O)cc1C` (configuration not stated) were 8.05, 87, 67000 nM and 6.11.
Taken in the same sequence, the figures for `Cc1cc(SC2=C(O)OC(C)(CCc3ccc(O)cc3)CC2=O)c(C(C)(C)C)cc1O` (configuration not stated) were 8.19, less than 1, 7000 nM and less than 5.15.
Taken in the same sequence, the figures for `Cc1cc(SC2=C(O)OC(C)(CCc3ccc(O)cc3)CC2=O)c(C(C)(C)C)cc1OS(=O)(=O)N1CCN(C)CC1` (configuration not stated) were 8.15, greater than 44, greater than 100000 nM and 5.64.
Turning to `CCNS(=O)(=O)Oc1cc(C(C)(C)C)c(SC2=C(O)OC(CCc3ccc(N)cc3)(C(C)C)CC2=O)cc1C` (configuration not stated), the pIC50 in series [4] was 8.37. The selectivity ratio in [6] worked out at 117. Besides, the CC50 in series [7] stood at 74000 nM. The compound also showed a pEC50 in series [8] of 6.20.
On to `Cc1cc(SC2=C(O)O[C@](CCc3ccc(N)cc3)(C(C)C)CC2=O)c(C(C)(C)C)cc1CO`, for which the inhibition at 10 µM against CYP3A4 [1] stood at 16%; with CYP2D6 [2], 16%; at CYP2C9 [14] it was 12%. In addition, the pKi in series [11] is 9.96. Moreover, the inhibition at 1 µM against CYP2C9 [12] worked out at 2%; against CYP3A4 [3] it was 4%; in the series on CYP2D6 [5], 3%. Also, the inhibition at 100 µM is 59% against CYP2C9 [13], 33% in the series on CYP2D6 [9] and 30% against CYP3A4 [10]. The pIC50 in series [4] was 9.00. Also, in series [6], the selectivity ratio came to 1050. Moreover, in [8], the pEC50 was 6.70.
Take `CCNS(=O)(=O)Oc1cc(C(C)(C)C)c(SC2=C(O)OC(CCc3ccc(O)cc3)(C3CCCCC3)CC2=O)cc1C` (configuration not stated): the pIC50 in series [4] is 8.32. Moreover, in series [6], the selectivity ratio was 48. For the same compound, the CC50 in series [7] was 67000 nM. In series [8], this compound showed a pEC50 of 5.85.
Taken in the same sequence, the figures for `CCNS(=O)(=O)Oc1cc(C(C)(C)C)c(SC2=C(O)OC(CCc3ccc(O)cc3)(C(C)C)CC2=O)cc1C` (configuration not stated) were 8.31, greater than 91, greater than 100000 nM and 5.96.
Taken in the same sequence, the figures for `CCNS(=O)(=O)Oc1cc(C(C)(C)C)c(SC2=C(O)OC(CCc3ccc(O)cc3)(c3ccccc3)CC2=O)cc1C` (configuration not stated) were 7.59, 15, 66000 nM and 5.37.
Regarding `CNS(=O)(=O)Oc1cc(C(C)(C)C)c(SC2=C(O)OC(CCc3ccc(O)cc3)(C(C)C)CC2=O)cc1C` (configuration not stated), in series [4], the pIC50 is 8.92. Besides, the selectivity ratio in series [6] is greater than 91. In addition, the CC50 in [7] is greater than 100000 nM. The compound further gave a pEC50 in series [8] of 5.96.
Turning to `Cc1cc(SC2=C(O)OC(CCc3ccc(O)cc3)(C(C)C)CC2=O)c(C(C)(C)C)cc1OS(=O)(=O)N1CCOCC1` (configuration not stated), in series [4], the pIC50 is 8.59. The selectivity ratio in [6] came out at 109. Further, the CC50 in series [7] came out at 84000 nM. In series [8], the pEC50 is 6.11.
Taken in the same sequence, the figures for `Cc1cc(SC2=C(O)OC(CCc3ccc(O)cc3)(C3CCCCC3)CC2=O)c(C(C)(C)C)cc1OS(=O)(=O)N1CCN(C)CC1` (configuration not stated) were 8.01, greater than 20, greater than 100000 nM and 5.29.
Consider `CCNS(=O)(=O)Oc1cc(C(C)(C)C)c(SC2=C(O)OC(C)(CCc3ccc(O)cc3)CC2=O)cc1C` (configuration not stated), for which the inhibition at 10 µM against CYP3A4 [1] was determined as 10%; in the series on CYP2D6 [2], 89%; against CYP2C9 [14] it was 6%. Also, the inhibition at 1 µM against CYP2C9 [12] worked out at 0%; against CYP3A4 [3], 1%; in the series on CYP2D6 [5], 62%. Also, the inhibition at 100 µM at CYP2C9 [13] was determined as 46%; in the series with CYP2D6 [9], 100%; at CYP3A4 [10], 58%. The compound also gave a pIC50 in series [4] of 8.64. In addition, the selectivity ratio in series [6] came out at 44. In series [7], the CC50 turned out to be 66000 nM. Further, the pEC50 in series [8] was 5.82.
Regarding `CCCNS(=O)(=O)Oc1cc(C(C)(C)C)c(SC2=C(O)OC(C)(CCc3ccc(O)cc3)CC2=O)cc1C` (configuration not stated), the pIC50 in [4] is 8.21. Also, the selectivity ratio in series [6] was found to be 15. For the same compound, the CC50 in series [7] is 66000 nM. In series [8], this compound gave a pEC50 of 5.37.
Taken in the same sequence, the figures for `Cc1cc(SC2=C(O)OC(CCc3ccc(O)cc3)(C(C)C)CC2=O)c(C(C)(C)C)cc1OS(=O)(=O)N(C)C` (configuration not stated) were 8.47, 100, 70000 nM and 6.15.
Taken in the same sequence, the figures for `Cc1cc(SC2=C(O)OC(C)(CCc3ccc(O)cc3)CC2=O)c(C(C)(C)C)cc1OS(N)(=O)=O` (configuration not stated) were 8.74, 13, 69000 nM and 5.28.
Taken in the same sequence, the figures for `Cc1cc(SC2=C(O)OC(CCc3ccc(N)cc3)(C(C)C)CC2=O)c(C(C)(C)C)cc1OS(=O)(=O)N(C)C` (configuration not stated) were 8.41, 86, 64000 nM and 6.13.
Regarding `Cc1cc(SC2=C(O)OC(CCc3ccc(N)cc3)(C(C)C)CC2=O)c(C(C)(C)C)cc1OS(=O)(=O)N1CCN(C)CC1` (configuration not stated), the pIC50 in [4] is 9.00. Also, the selectivity ratio in series [6] came to 127. Moreover, the CC50 in series [7] is 71000 nM. The compound further had a pEC50 in series [8] of 6.25.
Taken in the same sequence, the figures for `CCCNS(=O)(=O)Oc1cc(C(C)(C)C)c(SC2=C(O)OC(CCc3ccc(O)cc3)(C(C)C)CC2=O)cc1C` (configuration not stated) were 8.52, greater than 83, greater than 100000 nM and 5.92.
`Cc1cc(SC2=C(O)OC(CCc3ccccc3)(C(C)C)CC2=O)c(C(C)(C)C)cc1OS(=O)(=O)N1CCN(C)CC1` (configuration not stated) showed a pIC50 in [4] of 8.41. In [6], the selectivity ratio was greater than 61. In [7], the CC50 is greater than 100000 nM. Moreover, the pEC50 in [8] is 5.78.
Taken in the same sequence, the figures for `Cc1cc(SC2=C(O)OC(CCc3ccc(O)cc3)(C3CCCCC3)CC2=O)c(C(C)(C)C)cc1OS(=O)(=O)N(C)C` (configuration not stated) were 7.70, 12, 60000 nM and 5.30.
